Assay results from ChEMBL document CHEMBL1201862, “PubChem BioAssay data set” (2004).
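Compound exposure: 48 hours, 5 concentrations, 96-well plates. Here, GI50 denotes the concentration required for 50% inhibition of growth.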 Activity calls are given as the source filed them. No stated cut-off is given here; in the data, active = GI50 up to about 1.1 µM and inactive = higher. Square brackets hold non-standard residues; d marks the D form. Peptide text beside a SMILES is read from it. * marks the point of attachment. ξ: configuration not given here. Propanoyl(3-(4-MeO-Ph)) = COc1ccc(CCC(=O)*)cc1; Thr(3ξ) = CC(O)[C@H](N)C(=O)O; dNMeL = CN[C@H](CC(C)C)C(=O)O; ξLac = CC(O)C(=O)O

Legend:
Test in all cases: inhibition of tumour cell growth, NCI panel, 48 h
BT-549 = system: BT-549
COLO 205 = system: COLO 205
DU-145 = system: DU-145
HCT-116 = system: HCT-116
HOP-62 = system: HOP-62
IGROV-1 = system: IGROV-1
KM12 = system: KM12
MCF7 = system: MCF7
MDA-MB-231 = system: MDA-MB-231
MDA-N = system: MDA-N
Malme-3M = system: Malme-3M
OVCAR-4 = system: OVCAR-4
RPMI-8226 = system: RPMI-8226
SF-539 = system: SF-539
SK-MEL-5 = system: SK-MEL-5
SK-OV-3 = system: SK-OV-3
SN12C = system: SN12C
SNB-75 = system: SNB-75
T47D = system: T47D
U-251 = system: U-251

Measured: GI50

Cc1cc(/N=C/c2ccc(F)cc2)n(-c2ccccc2)n1
inactive: BT-549 85.1 µM | COLO 205 37.1 µM | DU-145 > 100 µM | HCT-116 > 100 µM | HOP-62 > 100 µM | IGROV-1 84.3 µM | KM12 51.8 µM | MCF7 46.7 µM | MDA-MB-231 > 100 µM | MDA-N 73.3 µM | Malme-3M 75.5 µM | OVCAR-4 75.7 µM | RPMI-8226 21.3 µM | SF-539 > 100 µM | SK-MEL-5 52.5 µM | SK-OV-3 > 100 µM | SN12C 57.3 µM | SNB-75 56.1 µM | T47D 27.2 µM | U-251 > 100 µM

COC(=O)[C@@H](NC(=O)[C@@H](CC(C)C)N(C)C(=O)[C@@H]1CCCN1C(=O)C(C)O)C(C)OC(=O)CCc1ccc(OC)cc1 (stereo partly drawn) (H-[ξLac]P[dNMeL][Thr(3ξ)](Propanoyl(3-(4-MeO-Ph)))-OMe)
inactive: BT-549 > 100 µM | COLO 205 > 100 µM | DU-145 > 100 µM | HCT-116 > 100 µM | HOP-62 > 100 µM | IGROV-1 > 100 µM | KM12 > 100 µM | MCF7 > 100 µM | MDA-MB-231 > 100 µM | MDA-N > 100 µM | Malme-3M > 100 µM | OVCAR-4 > 100 µM | RPMI-8226 > 100 µM | SF-539 > 100 µM | SK-MEL-5 > 100 µM | SK-OV-3 > 100 µM | SN12C > 100 µM | SNB-75 > 100 µM | T47D > 100 µM | U-251 > 100 µM

COc1ccc(C2N(c3ccc(F)c([N+](=O)[O-])c3)C(=O)N3C(c4ccc(OC)cc4)N(c4ccc(F)c([N+](=O)[O-])c4)C(=O)N23)cc1 (stereo not drawn)
inactive: BT-549 > 100 µM | COLO 205 > 100 µM | DU-145 > 100 µM | HCT-116 > 100 µM | HOP-62 > 100 µM | IGROV-1 > 100 µM | KM12 > 100 µM | MCF7 > 100 µM | MDA-MB-231 57.1 µM | MDA-N > 100 µM | Malme-3M > 100 µM | OVCAR-4 > 100 µM | RPMI-8226 > 100 µM | SF-539 > 100 µM | SK-MEL-5 > 100 µM | SN12C > 100 µM | SNB-75 > 100 µM | T47D > 100 µM | U-251 > 100 µM

CC(C)(CN)CN
inactive: BT-549 > 100 µM | COLO 205 > 100 µM | DU-145 > 100 µM | HCT-116 > 100 µM | HOP-62 > 100 µM | IGROV-1 > 100 µM | KM12 > 100 µM | MCF7 > 100 µM | MDA-MB-231 > 100 µM | MDA-N > 100 µM | Malme-3M > 100 µM | OVCAR-4 > 100 µM | RPMI-8226 > 100 µM | SF-539 > 100 µM | SK-MEL-5 > 100 µM | SK-OV-3 > 100 µM | SN12C > 100 µM | SNB-75 > 100 µM | T47D > 100 µM | U-251 > 100 µM

Nc1nc(Cl)cc(NCC2(O)CCC2)n1
inactive: BT-549 > 100 µM | COLO 205 > 100 µM | DU-145 > 100 µM | HCT-116 > 100 µM | HOP-62 > 100 µM | IGROV-1 > 100 µM | KM12 > 100 µM | MCF7 > 100 µM | MDA-MB-231 > 100 µM | MDA-N > 100 µM | Malme-3M > 100 µM | OVCAR-4 > 100 µM | RPMI-8226 > 100 µM | SF-539 > 100 µM | SK-MEL-5 > 100 µM | SK-OV-3 > 100 µM | SN12C > 100 µM | SNB-75 > 100 µM | T47D > 100 µM | U-251 > 100 µM

CCC(C)N1CN(c2ccccc2)C2(CCN(CCCSc3ccc(F)cc3)CC2)C1=O (stereo not drawn)
active: MDA-MB-231 0.296 µM
inactive: BT-549 1.66 µM | COLO 205 1.72 µM | DU-145 3.03 µM | HCT-116 2.88 µM | HOP-62 2.11 µM | IGROV-1 4.31 µM | KM12 3.92 µM | MCF7 3.09 µM | MDA-N 2.9 µM | Malme-3M 4.48 µM | RPMI-8226 2.31 µM | SF-539 2.57 µM | SK-MEL-5 1.96 µM | SK-OV-3 4.92 µM | SN12C 3.78 µM | SNB-75 11.1 µM | T47D 2.99 µM | U-251 3.72 µM

COc1ccc(Br)c(/C=N\c2cccc3cc(OC)c(OC)cc23)c1
inactive: BT-549 8.3 µM | COLO 205 79.3 µM | DU-145 52.1 µM | HCT-116 4.35 µM | HOP-62 9.64 µM | IGROV-1 25.8 µM | KM12 21.1 µM | MCF7 2.33 µM | MDA-MB-231 15.5 µM | MDA-N 3.44 µM | Malme-3M 34 µM | OVCAR-4 40.6 µM | RPMI-8226 3.44 µM | SF-539 2.64 µM | SK-MEL-5 17.5 µM | SK-OV-3 55.1 µM | SN12C 12.8 µM | SNB-75 38.8 µM | T47D 58.5 µM | U-251 2.99 µM

NNC(=O)CC(=O)Nc1ccc(Cl)cc1
inactive: BT-549 > 100 µM | COLO 205 > 100 µM | DU-145 > 100 µM | HCT-116 > 100 µM | HOP-62 > 100 µM | IGROV-1 > 100 µM | KM12 > 100 µM | MCF7 > 100 µM | MDA-MB-231 > 100 µM | MDA-N > 100 µM | Malme-3M > 100 µM | OVCAR-4 > 100 µM | RPMI-8226 > 100 µM | SF-539 > 100 µM | SK-MEL-5 > 100 µM | SK-OV-3 > 100 µM | SN12C > 100 µM | SNB-75 > 100 µM | T47D > 100 µM | U-251 > 100 µM

O=C(Nc1ccccc1C(=O)Nc1nccs1)c1ccccc1
inactive: BT-549 15.1 µM | COLO 205 4.04 µM | DU-145 13.6 µM | HCT-116 12.1 µM | HOP-62 16.6 µM | IGROV-1 35.8 µM | KM12 6.03 µM | MCF7 12.8 µM | MDA-MB-231 25.1 µM | MDA-N 19.5 µM | Malme-3M 10.5 µM | RPMI-8226 6.65 µM | SF-539 43 µM | SK-MEL-5 4.55 µM | SK-OV-3 23.2 µM | SN12C 59 µM | SNB-75 21.1 µM | T47D 2.84 µM | U-251 6.52 µM

COC(=O)Nc1nc2ccccc2[nH]1 [CARBENDAZIM]
inactive: BT-549 10.1 µM | COLO 205 5.05 µM | DU-145 5.18 µM | HCT-116 4.21 µM | HOP-62 11.1 µM | IGROV-1 8.17 µM | KM12 4.26 µM | MCF7 5.07 µM | MDA-MB-231 27.8 µM | MDA-N 2.98 µM | Malme-3M > 43.9 µM | OVCAR-4 > 47.4 µM | RPMI-8226 5.25 µM | SF-539 5.2 µM | SK-MEL-5 6.03 µM | SK-OV-3 3.44 µM | SN12C 21.9 µM | SNB-75 9.38 µM | T47D 9.51 µM | U-251 4.86 µM

CC(NC(=O)CNP(=O)(c1ccccc1)c1ccccc1)C(=O)NC(Cc1ccccc1)C(=O)OCc1ccccc1 (stereo not drawn)
inactive: BT-549 > 100 µM | COLO 205 > 10 µM | DU-145 > 100 µM | HCT-116 34.9 µM | HOP-62 > 100 µM | IGROV-1 66.5 µM | KM12 25.6 µM | MCF7 24.6 µM | MDA-MB-231 35.6 µM | MDA-N 43.3 µM | Malme-3M 60.8 µM | RPMI-8226 33 µM | SF-539 62.2 µM | SK-MEL-5 25.7 µM | SK-OV-3 21 µM | SN12C 42.7 µM | SNB-75 19.6 µM | T47D > 100 µM | U-251 23.4 µM

CC(C)N(c1cc2c(cc1F)c(=O)c(C(=O)O)cn2-c1ccc(N2CCN(C)CC2)cn1)C(C)C
inactive: BT-549 86.7 µM | COLO 205 > 100 µM | DU-145 > 100 µM | HCT-116 > 100 µM | HOP-62 > 100 µM | IGROV-1 > 100 µM | KM12 > 100 µM | MCF7 > 100 µM | MDA-MB-231 > 100 µM | MDA-N > 100 µM | Malme-3M > 100 µM | OVCAR-4 > 100 µM | RPMI-8226 > 100 µM | SF-539 > 100 µM | SK-OV-3 > 100 µM | SN12C > 100 µM | SNB-75 > 100 µM | T47D > 100 µM | U-251 > 100 µM

COc1cccc(C2c3cc4c(cc3OC(NNc3ccccc3)C2C)OCO4)c1OC (stereo not drawn)
inactive: BT-549 7.28 µM | COLO 205 3.77 µM | DU-145 5.19 µM | HCT-116 3.78 µM | HOP-62 3.64 µM | IGROV-1 4.6 µM | KM12 1.59 µM | MCF7 4.73 µM | MDA-MB-231 17.5 µM | MDA-N 5.46 µM | Malme-3M 12.2 µM | RPMI-8226 2.92 µM | SF-539 4.14 µM | SK-MEL-5 14 µM | SK-OV-3 49.1 µM | SN12C 9.84 µM | SNB-75 11.2 µM | T47D 5.09 µM | U-251 6.04 µM

CCCCCCCCCC[C@H](O)[C@H](O)CC[C@@H](O)[C@H]1CC[C@@H]([C@H]2CC[C@H](CCCCCCC[C@@H](O)CC3=C[C@H](C)OC3=O)O2)O1
active: RPMI-8226 0.82 µM | SK-MEL-5 1.06 µM
inactive: BT-549 37.5 µM | COLO 205 1.71 µM | DU-145 4.65 µM | HCT-116 2.64 µM | HOP-62 2.42 µM | IGROV-1 2.72 µM | KM12 2.22 µM | MCF7 1.16 µM | MDA-MB-231 2.31 µM | MDA-N 2.82 µM | Malme-3M 15.3 µM | OVCAR-4 24.4 µM | SF-539 4.48 µM | SN12C 4.06 µM | SNB-75 2.41 µM | T47D 3.16 µM | U-251 41.5 µM
